Measurements published in US20240307362A1 (priority 2019, published 2024).
pIC50: −log10 of the molar value. Like-named read-outs stand apart in the source and are kept apart here.

Legend:
Assay type in all cases: cell-based
[1] = tested on: Ba/F3-EGFR-WT; experiment: Ba/F3 cell survival assay, WT EGFR
[2] = tested on: HCC-827 cells; experiment: HCC-827 cell proliferation assay (EGFRex19del); conditions: Homo sapiens, HCC827, 72 h, read-out: HCC-827 IC50
Procedure: (§1) HCC-827 cells were purchased from ATCC. 400 HCC-829 cells per well were seeded in growth medium (RPMI1640, 10% FCS) in a 384-well plate (CORNING #3571). Seed reference plate for time zero determination on the same day. All plates were incubated overnight at 37° C. After 24 hours, test compound were added in 7-step dilution using HP Compound printer and incubated at 37° C. for 72 h. After 3 days, 30 μL/well CTG solution (Promega Cell Titer Glo solution; catalog #G755B and G756B) were added to each well, incubated for 30 minutes and the plate were read on PheraStar. Proliferation is calculated after subtracting time zero luminescence values from day 4 values and comparing to untreated wells.
The IC50 values were determined using the four parameter fit.

[3] = tested on: Ba/F3-EGFR-D770_N771insNPG; experiment: Ba/F3 cell survival assay, EGFR D770_N771insNPG; conditions: Mus musculus, BaF3, 48 h, read-out: BA/F3 (insNPG) IC50
Procedure: (§2) 293T cells from ATCC were transfected with pBABEpuro expression constructs for mutant EGFR (V769_D770insASV, D770_N771insNPG, N771_P772insH, H773_V774insNPH, E746_A750del, L858R, D770_N771 insSVD C797S, E746_A750del C797S, L858R C797S, L861Q) or mutant ERBB2 (A775_G776insYVMA) and pCL-Eco packaging vector using Fugene-6 transfection reagent from Promega. Plates were incubated at 37° C. for 48 h. Retrovirus was harvested by filtering the media supernatant through a 0.45 μm filter.
(§3) Ba/F3 cells purchased from DSMZ were grown in RPMI+10% FBS+10 ng/mL IL-3 and infected with filtered retroviral supernatant at a 1:2 dilution. Polybrene was added to a concentration of 8 μg/mL, plates were spun for 90 min, and incubated overnight at 37° C. 2 μg/mL puromycin was added to the infected cells 24 h after infection and cells were continually grown in the presence of puromycin and 10 ng/mL IL-3. Following stably expressing Ba/F3 cell lines were generated: Ba/F3-EGFR-V769_D770insASV, Ba/F3-EGFR-D770_N771insNPG, Ba/F3-EGFR-N771_P772insH, Ba/F3-EG, Ba/F3-EGFR-H773_V774insNPH, Ba/F3-EGFR-E746_A750del, Ba/F3-EGFR-L858R, Ba/F3-EGFR-D770_N771 insSVD C797S, Ba/F3-EGFR-E746_A750del C797S, Ba/F3-EGFR-L858R C797S, Ba/F3-EGFR L861Q and Ba/F3-ERBB2-A775_G776insYVMA (Ba/F3—vector-control).
(§4) For cell survival assays, Ba/F3 cells were grown to a density of 1-2 million cells per mL, spun down and resuspended in media without IL-3, and replated at a concentration 200,000-500,000 cells per mL. The cells ectopically expressing WT EGFR plated with 10 ng/mL Millipore Culture grade EGF and Ba/F3 cells containing mutant EGFR or Mutant ERBB2 were cultivated without EGF. The cells ectopically expressing pBABEpuro empty vector were plated with 10 ng/mL IL-3.
(§5) 2 days later, cells were plated in 50 μL in a 384 well plate at a concentration of 4000 cells per well for cells assayed in the absence of IL-3 and 2000 cells per well for cells assayed in the presence of IL-3. 100 nL of compound was added to each well using a 100 nL pin head, and plates were incubated at 37° C. for 48 h.
(§6) Cell viability was measured by adding 20 μL of Cell Titer-Glo Luminescent Cell Viability Reagent diluted 1:3 in PBS. Plates were sealed with Perkin Elmer Top-Seal, inverted several times to mix, and immediately centrifuged at 1000 rpm for 2 min. Plates were incubated in low light conditions for 8-10 min and luminescence was measured.

[4] = tested on: Ba/F3-EGFR-V769_D770insASV; experiment: Ba/F3 cell survival assay, EGFR V769_D770insASV; conditions: 48 h, read-out: BA/F3 (ASV) IC50
Procedure: as §2, §3, §4, §5, §6

[5] = tested on: Ba/F3-EGFR-L858R C797S; experiment: Ba/F3 cell survival assay, EGFR L858R C797S; conditions: 48 h, read-out: BA/F3 (EGFR L858R C797S) IC50
Procedure: as §2, §3, §4, §5, §6

[6] = tested on: PC9 cells; experiment: PC9 cell proliferation assay (EGFRex19del); conditions: Homo sapiens, PC-9, 72 h, read-out: PC9 IC50
Procedure: as §1, with “PC9” for “HCC-827”, “PC9” for “HCC-829”, “(DMEM,” for “(RPMI1640,”, “wells. The IC50 values were determined using the four parameter fit.” for “wells.”

[7] = read-out: BA/F3 (wild type) IC50, cell viability, Cell Titer-Glo, 48 h, with 10 ng/mL EGF, without IL-3

Compound | pIC50 ([1]; Mus musculus, BaF3, 48 h, read-out: BA/F3 (wild type) IC50, cell viability, Cell Titer-Glo, 48 h, with 10 ng/mL EGF, without IL-3) | pIC50 [2] | pIC50 [3] | pIC50 [4] | pIC50 [5] | pIC50 [6] | pIC50 [1, 7]
COc1c(Cl)cccc1Nc1c(-c2ccncc2OC[C@@H]2CCO2)[nH]c2c1C(=O)NCC2 [Example 2, 3-(3-chlor-2-methoxyanilino)-2-{3-[(2S)-oxetan-2-ylmethoxy]pyridin-4-yl}-1,5,6,7-tetrahydro-4H-pyrrolo[3,2-c]pyridin-4-on] | 6.55 | > 8.52 | 8.01 | 8.01 | 8.82 | 8.64 | –
COc1c(Cl)cccc1Nc1c(-c2ccncc2OCC2(C)CCO2)[nH]c2c1C(=O)NCC2 (single isomer, unassigned; (+)) [Example 48, (+)-3-(3-chloro-2-methoxyanilino)-2-{3-[(2-methyloxetan-2-yl)methoxy]pyridin-4-yl}-1,5,6,7-tetrahydro-4H-pyrrolo[3,2-c]pyridin-4-one] | – | > 8.52 | 8.07 | 7.94 | 8.89 | 8.68 | 6.46
COc1c(Cl)cccc1Nc1c(-c2ccncc2OCC2OCC2(C)C)[nH]c2c1C(=O)NCC2 (single isomer, unassigned; (+)) [Example 50, (+)-3-(3-chloro-2-methoxyanilino)-2-{3-[(3,3-dimethyloxetan-2-yl)methoxy]pyridin-4-yl}-1,5,6,7-tetrahydro-4H-pyrrolo[3,2-c]pyridin-4-one] | – | > 8.52 | 8.04 | 7.79 | 8.53 | 8.64 | 6.46
COc1c(Cl)cccc1Nc1c(-c2ccncc2OCCC2CCO2)[nH]c2c1C(=O)NCC2 (single isomer, unassigned; (-)) [Example 26, (−)-3-(3-chloro-2-methoxyanilino)-2-{3-[2-(oxetan-2-yl)ethoxy]pyridin-4-yl}-1,5,6,7-tetrahydro-4H-pyrrolo[3,2-c]pyridin-4-one] | – | > 8.52 | 8.12 | 8.03 | 9.00 | 8.85 | 6.69
